{"source": "patent US11214586B2", "about": "“Rhodamine triplet state complex and preparation and photodynamic therapy (PDT) study thereof” (SOUTHERN UNIVERSITY OF SCIENCE AND TECHNOLOGY, priority 2018, dated 2022)", "key": {"[1]": {"experiment": "Nanosecond transient absorption difference spectroscopy", "type": "physicochemical", "settings": "measured by transient absorption in CH3CN", "description": "Nanosecond transient absorption (TA) difference spectroscopy was employed to investigate the triplet excited states of M-Rho (FIG. 2c and FIGS. 16-19). Upon pulsed laser excitation at 355 nm, an intense bleaching signal at 575 nm with lifetime in microsecond range is observed, which is ascribed to the depletion of ground state rhodamine absorption. Such a long-lived excited state should be localized on the rhodamine unit, and is assigned as the ^3IL excited state of rhodamine in M-Rho. The absorption signal at 610-800 nm is due to the rhodamine ^3IL excited state absorption. In contrast, no signal from this triplet excited state is detected in bpy-Rho because of the lack of efficient ISC. On the other hand, only the transient absorption signals originating from the corresponding ^3MLCT excited states are observed in the rhodamine-free analogues (FIGS. 20-21).\nThe UV-vis absorption spectra were taken on Cary 60 UV-vis spectrophotometer. Steady-state emission spectra at room temperature were recorded on an Edinburgh Instruments FLS980 fluorescence spectrometer. Quartz cuvettes (path length=1 cm) were used in all spectrophotometric and fluorometric measurements. NMR spectra were recorded on a Bruker AVANCE 400 (^1H NMR for 400 MHz and ^13C NMR for 100 MHz) Fourier transform NMR spectrometer with chemical shifts reported relative to tetramethylsilane, (CH3)4Si. High-resolution MS spectra were performed on an Orbitrap Fusion Tribrid mass spectrometer. Elemental analyses of the newly synthesized complexes were preformed on a Elementar Vario EL Cube elemental analyzer at Sun Yat-sen University. The nanosecond time-resolved transient-difference absorption spectra were detected by using Edinburgh LP920 instruments (Edinburgh Instruments, U.K.). All solutions for transient absorption studies were degassed on a high-vacuum line in a two-compartment cell consisting of a 10-ml Pyrex bulb and a 1-cm or 4-mm path length quartz cuvette and sealed from the atmosphere by a Bibby Rotaflo HP6 Teflon stopper. The solutions were rigorously degassed with at least four successive freeze-pump-thaw cycles. Emission lifetime measurements were performed using a conventional laser system. The excitation source used was a 355-nm output (third harmonic) of a Spectra-Physics Quanta-Ray Q-switched GCR-150-10 pulsed Nd-YAG laser. Luminescence decay signals were detected by a Hamamatsu R928 PMT and recorded on a Tektronix Model TDS-620A (500 MHz, 2 GS/s) digital oscilloscope and analyzed using a program for exponential fits. Absolute quantum yields were measured by HAMAMATSU-C11347."}, "MCF-7 tumor-bearing mice": {"tested_on": "MCF-7 tumor-bearing mice", "experiment": "In vivo NIRF imaging, biodistribution and tumor accumulation", "experimental": "The procedures were approved by the Animal Care and Use Committee (Shenzhen Institutes of Advanced Technology, Chinese Academy of Sciences). Four-8-week-old female BALB/c mice or nude mice (Vital River Laboratory Animal Technology Co. Ltd., China) were subcutaneously injected with MCF-7 cells (1×10^6) in the flank region.\nThe Maestro GNIR Flex imaging system and analysis with software from CRi was used to image tumor-bearing animals over time following i.v. treatment with Ir-Rho (200 μM, 150 μl). At each time point, the mouse was imaged at 600 nm excitation and 650 nm emission. At 24 h post injection, tumors and major organs were excised for ex vivo NIRF imaging to determine the tissue distribution of Ir-Rho. All main organs were cut with similar thickness and imaged at 600 nm excitation and 650 nm emission. The average fluorescence intensity of organs was from a region of interest (ROI) placed over the area of the organs on the image."}, "MCF-7 cells": {"tested_on": "MCF-7 cells", "experiment": "Mitochondrial membrane potential, flow-cytometry-based JC-1 assay", "type": "cell-based, human", "settings": "5 uM, 11 W lamp 30 min", "experimental": "Mitochondrial depolarization was assessed by flow cytometry after incubation with JC-1 Molecular Probes (Thermo Fisher Scientific, USA). Briefly, The MCF-7 cells were seeded in six-well plate, incubated for 24 h in 5% CO2 at 37° C. Next, added to compounds (bpy-Rho and M-Rho) in medium make the final concentrations of 5 uM compounds. After irradiation treatment (11 W lamp 30 min). The cells were resuspended in warm PBS, and incubated with JC-1 (4 μg/ml) for 30 min at 37° C. and 5% CO2. Thereafter the cells were centrifuged, resuspended in 600 μL of PBS, and analyzed immediately on a flow cytometer (Becton Dickinson, San Jose, Calif., USA). Untreated cells were used as negative controls."}, "[2]": {"settings": "ex vivo NIRF, 24 h post-injection"}}, "data": [{"smiles": "CCN(CC)c1ccc2c(-c3ccnc(-c4cc(C)ccn4)c3)c3ccc(=[N+](CC)CC)cc-3oc2c1.F[P-](F)(F)(F)(F)F.F[P-](F)(F)(F)(F)F.c1ccc(-c2cccc[c]2[Ir+][c]2ccccc2-c2ccccn2)nc1", "note": "[Ir-Rho]", "values": [{"measurement": "TT (triplet-state lifetimes)", "setting": "[1]", "result": 0.82, "unit": "μs"}, {"measurement": "liver uptake", "setting": "MCF-7 tumor-bearing mice; [2]", "result": "relatively low liver uptake"}, {"measurement": "tumor accumulation", "setting": "MCF-7 tumor-bearing mice; [2]", "result": "good tumor accumulation"}, {"measurement": "time of peak tumor uptake", "setting": "MCF-7 tumor-bearing mice; i.v. injection via the tail vein, 200 μM, 150 μl", "result": 24, "unit": "h"}, {"measurement": "ratio of JC-1 aggregates/JC-1 monomers", "setting": "MCF-7 cells", "result": 1.79}]}]}
